The values that follow come from US20150065442A1, “REDUCIBLE SELF-ASSEMBLED MICELLE DRUG DELIVERY SYSTEMS” (University of Manitoba, priority 2012, published 2015).

In one data set the test system is HepG2 cells. Put plainly: MTT cytotoxicity (cell inhibition) assay. It is filed as cell-based, human. The method, then: Hepatoma cells (HepG2) were used to investigate cell inhibition of DOX-loaded nanoparticles. HepG2 cells were obtained from the American Type Culture Collection and cultured with Dulbecco's Modified Eagle's Medium (DMEM, GIBCO) supplemented with 10% fetal bovine serum (FBS, GIBCO), 1.0×10^5 U/l penicillin (Sigma) and 100 mg/l streptomycin (Sigma) at 37° C. in 5% CO2.
The cytotoxicity of the copolymeric micelles loaded with DOX was determined using the MTT Cell Proliferation Kit (Biotium Inc., Hayward, Calif., USA). HepG2 cells were seeded into a 96-well tissue culture plate at a density of 8,000 cells per well and were incubated at 37° C. in 5% CO2. The growth medium was replaced with fresh DMEM after 24 h. Then the DOX-loaded PAE polymeric micelle solution and controls (free DOX and blank micelle solutions) were added into wells (six wells per sample). After 48 h of incubation, 10 μL MTT solution was added to each well and incubation continued for another 4 h. […] The absorbance of each well was measured using an ELISA plate reader at a test wavelength of 570 nm and a reference wavelength of 630 nm. The cell inhibition of samples was calculated as: […]
where Isample and Icontrol represent the intensity determined for cells treated with different samples and for control cells (untreated), respectively.

Data set [1] deals with hepatocellular carcinomatous HepG2 cells. Put plainly: Cellular uptake of DOX by confocal laser scanning microscopy. Format: cell-based, human. The method, then: Confocal laser scanning microscopy (CLSM) was employed to examine the cellular uptake of DOX by incubating hepatocellular carcinomatous HepG2 cells with free DOX or the DOX-loaded micelles for 15 min, 2 h or 24 h. First, the HepG2 cells were seeded in culture dishes at a density of 2×10^5 cells/dish, overlaid with cover slips, and cultured for 24 h. Then, the cells were exposed to DOX-loaded micelles. After predetermined incubation times, the cover slips were removed and was washed with cold PBS three times after which, the cells were fixed by 4% paraformaldehyde in PBS at room temperature for 15 min. After fixation, the cells were permeabilized by 0.1% Triton X-100 in PBS for 10 min and then rinsed with PBS three times. The cells were incubated in 10 uM BODIPY® FL phallacidin/1% (w/v) BSA solution for 20 min and then rinsed with PBS three times (BODIPY is a registered trademark of Molecular Probes Inc., Eugene, Oreg., USA). The cells were then incubated in 10 μM Topro-3 for 20 min and then rinsed with PBS three times. The cover slips were set onto microscope slides and examined by CLSM.

The test system of data set [2] is MCF-7 human breast cancer cells. The description is as above. It is filed as cell-based. The method, then: Confocal laser scanning microscopy (CLSM) was employed to examine the cellular uptake of DOX by incubating MCF-7 human breast cancer cells with free DOX or DOX-loaded reducible self-assembled rPAE micelles or DOX-loaded non-reducible self-assembled nPAE micelles for 15 min and 2 h. First, the MCF-7 cells were seeded in 10-cm culture dishes at a density of 2×10^5 cells/dish, overlaid with cover slips, and cultured for 24 h. Then, the cells were exposed to DOX-loaded micelles. After the predetermined incubation times, the cover slips were removed and washed with cold PBS three times after which, the cells were fixed by 4% paraformaldehyde in PBS at room temperature for 15 min. After fixation, the cells were permeabilized by 0.1% Triton X-100 in PBS for 10 min and then rinsed with PBS three times. The cells were incubated in 10 uM BODIPY® FL phallacidin/1% (w/v) BSA solution for 20 min and then rinsed with PBS three times. The cells were then incubated in 10 μM Topro-3 for 20 min and then rinsed with PBS three times. The cover slips were set onto microscope slides and examined by CLSM.

As for `COc1cccc2c1C(=O)c1c(O)c3c(c(O)c1C2=O)C[C@@](O)(C(=O)CO)C[C@@H]3O[C@H]1C[C@H](N)[C@H](O)[C@H](C)O1` [free DOX, doxorubicin], the “Cytotoxicity, dose dependence” value in the data set on HepG2 cells is listed as “increases with increasing dose”. Moreover, the “Intracellular distribution of DOX fluorescence” value was “evenly distributed in cell cytoplasm and the nuclei” in data set [1] (HepG2, 15-min incubation); “DOX fluorescence accumulation was detected in and around the nuclei” in data set [1] (HepG2, 2 h exposure); “most of DOX fluorescence was distributed into the nucleus” in data set [1] (HepG2, 24 h exposure). Moreover, the “Cell morphology after exposure” value in data set [1] (HepG2, 24 h exposure) is “nucleus became distinctively swollen and the cytoplasm shrank”. In addition, the “Intracellular DOX fluorescence” value in data set [2] (MCF-7, 15 min of incubation) is reported as “fluorescing DOX molecules were observed intracellularly”; in data set [2] (MCF-7, 2 hr of incubation), “accumulations of DOX molecules around the nuclei”.
